Measured values taken from ChEMBL document CHEMBL1255271, “Determinants of in vitro drug susceptibility testing of Plasmodium vivax” (Antimicrob Agents Chemother, 2008).

Legend:
Plasmodium vivax [1] = test: Antimicrobial activity against Plasmodium vivax trophozoites by microscopy; format: functional, organism-based
Plasmodium vivax [2] = test: Antimicrobial activity against Plasmodium vivax at the ring stage by microscopy; format: functional, organism-based
Plasmodium vivax [3] = test: Antimicrobial activity against Plasmodium vivax at the trophozoites by microscopy treated during ring stage; format: functional, organism-based
Plasmodium vivax [4] = test: Antimicrobial activity against Plasmodium vivax trophozoites measured after 30 hrs by microscopy; format: functional, organism-based
Plasmodium vivax [5] = test: Antimicrobial activity against Plasmodium vivax at the ring stage measured after 30 hrs by microscopy; format: functional, organism-based
Plasmodium vivax [6] = test: Antimicrobial activity against Plasmodium vivax trophozoites measured within 30 hrs by microscopy; format: functional, organism-based
Plasmodium vivax [7] = test: Antimicrobial activity against Plasmodium vivax at the ring stage measured within 30 hrs by microscopy; format: functional, organism-based
Plasmodium falciparum [8] = test: microbe, parasite or virus in culture
Description: Antimicrobial activity against Plasmodium falciparum at the ring stage by microscopy

Plasmodium falciparum [9] = test: microbe, parasite or virus in culture; remark: listed apart in the source
Description: Antimicrobial activity against Plasmodium falciparum trophozoites by microscopy treated during ring stage

Plasmodium vivax [10] = test: Antimicrobial activity against fast-growing synchronous Plasmodium vivax by microscopy
Plasmodium vivax [11] = test: Antimicrobial activity against slow-growing synchronous Plasmodium vivax by microscopy

SMILES	IC50 (Plasmodium vivax [1])	IC50 (Plasmodium vivax [2])	IC50 (Plasmodium vivax [3])	IC50 (Plasmodium vivax [4])	IC50 (Plasmodium vivax [5])	IC50 (Plasmodium vivax [6])	IC50 (Plasmodium vivax [7])	IC50 (Plasmodium falciparum [8])	IC50 (Plasmodium falciparum [9])	IC50 (Plasmodium vivax [10])	IC50 (Plasmodium vivax [11])
CCN(CC)Cc1cc(Nc2ccnc3cc(Cl)ccc23)ccc1O	22.1 nM	10 nM	24.2 nM	16.5 nM	7.85 nM	18.9 nM	23.4 nM	15.2 nM	8.2 nM	–	–
C[C@H]1[C@H](OC(=O)CCC(=O)O)O[C@@H]2O[C@@]3(C)CC[C@H]4[C@H](C)CC[C@@H]1[C@@]24OO3 [ARTESUNATE]	1.61 nM	0.86 nM	–	1.2 nM	0.83 nM	1.6 nM	1.39 nM	–	–	–	–
CCN(CC)CCCC(C)Nc1ccnc2cc(Cl)ccc12 (stereo not given) [CHLOROQUINE]	478 nM	55.2 nM	2810 nM	298 nM	59.8 nM	539 nM	475 nM	–	–	435 nM	39.9 nM
CCCCN(CCCC)CC(O)c1cc(Cl)cc2c1-c1ccc(Cl)cc1/C2=C/c1ccc(Cl)cc1 (stereo not given) [LUMEFANTRINE]	–	–	–	32.9 nM	37.6 nM	14.6 nM	24.8 nM	–	–	–	–
OC(c1cc(C(F)(F)F)nc2c(C(F)(F)F)cccc12)C1CCCCN1 (stereo not given) [MEFLOQUINE]	17 nM	6.39 nM	12.5 nM	7.27 nM	7.26 nM	17.4 nM	22.2 nM	–	4.6 nM	–	–
Clc1ccc2c(N3CCN(CCCN4CCN(c5ccnc6cc(Cl)ccc56)CC4)CC3)ccnc2c1 [PIPERAQUINE]	–	–	–	29.1 nM	14.6 nM	22.9 nM	31.2 nM	–	–	–	–
